Laboratory results: patent publication US6375979B2 (Somerset Pharmaceuticals, Inc., priority 1995, dated 2002)
Read-outs that look alike come from different tables or passages of the source.

Columns and labels:
[1] = system: TH positive cells in cultured E-14 embryonic mesencephalic cells
MAO-B [2] = molecular target: T1, MAO-B (Cavia porcellus, UniProt P58028); test: MAO-B inhibition in guinea pig hippocampal homogenates in vitro; type: biochemical; details: read-out: MAO-B % Inhibition x ± SEM
T1 construct: by human platelets and/or guinea pig hippocampal homogenates; from tissue; host or cells: guinea pig hippocampus homogenate
T1 sequence (P58028 1-520): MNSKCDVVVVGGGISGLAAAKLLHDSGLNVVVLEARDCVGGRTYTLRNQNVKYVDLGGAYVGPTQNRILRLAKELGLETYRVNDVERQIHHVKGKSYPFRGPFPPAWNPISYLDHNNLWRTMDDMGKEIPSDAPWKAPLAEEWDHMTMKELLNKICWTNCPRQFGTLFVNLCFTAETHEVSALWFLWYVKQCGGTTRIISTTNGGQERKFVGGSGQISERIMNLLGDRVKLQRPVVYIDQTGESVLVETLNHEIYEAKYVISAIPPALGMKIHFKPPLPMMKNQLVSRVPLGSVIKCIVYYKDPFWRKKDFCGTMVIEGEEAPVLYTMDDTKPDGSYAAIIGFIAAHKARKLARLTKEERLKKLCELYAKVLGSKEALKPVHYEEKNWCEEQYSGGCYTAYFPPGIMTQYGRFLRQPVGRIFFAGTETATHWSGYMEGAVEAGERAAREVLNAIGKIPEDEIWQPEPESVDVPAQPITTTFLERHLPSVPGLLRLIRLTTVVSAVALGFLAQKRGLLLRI
Source text: Human platelet MAO is comprised exclusively of the type-B isoform of the enzyme. […] The present study also examined the two enantiomers of DMS for inhibitory activity with respect to the MAO-A and MAO-B in guinea pig hippocampal tissue. Guinea pig brain tissue is an excellent animal model for studying brain dopamine metabolism, the enzyme kinetics of the multiple forms of MAO and the inhibitory properties of novel agents that interact with these enzymes. The multiple forms of MAO in this animal species show similar kinetic properties to those found in human brain tissue. Finally, the test agents were administered to guinea pigs and the extent to which they might act as inhibitors of brain MAO in vivo was assessed.
In vitro: The test system utilized the in vitro conversion of specific substrates of MAO-A (^14C-serotonin) and MAO-B (^14C-phenylethylamine) by human platelets and/or guinea pig hippocampal homogenates. […] A percent inhibition was calculated from these values.

MAO-B [3] = molecular target: T1, MAO-B; test: In vivo brain MAO-B inhibition in guinea pig hippocampus after 5 days of administration
Procedure: FIG. 20: In Vivo MAO-B Inhibition in Guinea Pig Hippocampus. […] Animals were then sacrificed and the MAO-B activity in the hippocampus portion of the brain was determined. […] The plots were used to estimate the ID50 dosage for each agent.
Each enantiomer of DMS was administered in vivo by subcutaneous injection once a day for five consecutive days, and inhibition of brain MAO-B activity was then determined.

| Compound | Survival of TH positive cells, % cont. ([1]; 0.5 μM) [%] | Survival of TH positive cells, Mean cells/cm^2 ([1]; 0.5 μM) [cells/cm^2] | Survival of TH positive cells, % cont. ([1]; 5 μM) [%] | Survival of TH positive cells, Mean cells/cm^2 ([1]; 5 μM) [cells/cm^2] | Survival of TH positive cells, % cont. ([1]; 50 μM) [%] | Survival of TH positive cells, Mean cells/cm^2 ([1]; 50 μM) [cells/cm^2] | inhibition at 1 µM (MAO-B [2]) [%] | times less potent than selegiline, preliminary studies (MAO-B [3]; brain MAO-B in vivo) | times less potent than selegiline as an inhibitor of MAO-B, more recent studies (MAO-B [3]; brain MAO-B in vivo, larger group of animals) | ED50 (MAO-B [3]; guinea pig, sc, read-out: ID50 for MAO-B in Guinea Pig Hippocampal Cortex, once a day for 5 days, subcutaneous, larger group of animals, FIG. 20) [mg/kg] |
| --- | --- | --- | --- | --- | --- | --- | --- | --- | --- | --- |
| desmethylselegiline [R(−)DMS] | 226.62 | 246.00 ± 22.76 | 329.76 | 357.95 ± 25.76 | 360.76 | 391.60 ± 34.93 | – | – | – | – |
| C#CCN[C@@H](C)Cc1ccccc1 (single isomer, unassigned) [S(+)DMS, ent-desmethylselegiline] | – | – | – | – | – | – | 44.4 ± 6.4 | about 10 times | about 50 times | ~0.5 |
